Reference: PMC12285270, “An antibiotic-free antimicrobial combination of bacteriocins and a peptidoglycan hydrolase: in vitro and in vivo assessment of its efficacy” (Applied and Environmental Microbiology, 2025)
Ends that are not written are not given here.

Columns and labels:
S. aureus Xen36 = conditions: cited from earlier work
Source text: (§1) The antimicrobial combinations of MP1, Nis, and AuresinePlus were additionally shown to be effective at eradicating S. aureus biofilms (Fig. 3B and C). This led us to assess the antimicrobial efficacy of the combination in vivo using a murine skin infection model. For infected mice treated with the combination, a reduction in the bioluminescence signal was observed throughout the experiment, except for two mice where a relapse of the infection occurred (see Discussion below, Fig. 4C).

S. aureus = conditions: in vitro; cited from earlier work
Source text: As individual components, these antimicrobials probably have limited efficacy against S. aureus in wounds. AuresinePlus is an engineered PGH consisting of the catalytic domain of the S. aureus autolysin LytM and the SH3b cell wall-binding domain lysostaph ...

[1] = test system: S. aureus Xen31 isolates Mut1 and Mut2; experiment: Spot-on-lawn assay on isolates recovered from wounds; type: cell-based; conditions: for zone of inhibition compared to wild-type strain Xen31: both isolates Mut1 and Mut2, 2 µl of 1 mg/ml nisin A, 0.1 mg/ml MP1 and/or 0.1 mg/ml AuresinePlus spotted
Description: Figure S9. Susceptibility of Xen31 mutants recovered from wounded mice. Spot-on-lawn assay using MP1 (M), Nis (N), Aur (A) or the tricomponent combination (MNA) comparing Xen31 WT with two resistant isolates recovered at day 7 PI from the back of wounded mice. Two µl of 1 mg/ml nisin A, 0.1 mg/ml MP1 and/or 0.1 mg/ml AuresinePlus were spotted.

[2] = test system: HT29 and Caco-2 cell lines; conditions: in vitro; cited from earlier work
Source text: (§2) Encouraged by the efficacy of the MP1/Nis/Aur combination in inhibiting S. aureus in the wound, we sought to examine the potential of the antimicrobial combination in treating mastitis, an infection often caused by S. aureus.

[3] = test system: normal human epidermal keratinocytes; conditions: cited from earlier work
Source text: as §2

S. aureus Xen31 = conditions: formulation: 0.1 mg/mL MP1, 5 mg/mL garvicin KS, 5 mg/mL penicillin G in 5% hydropropylcellulose; cited from earlier work
Source text: as §1

[4] = test system: HepG2 and THP-1 cell lines; conditions: cited from earlier work
Source text: as §2

Row | Substance | effect on wound healing (S. aureus Xen36) | reduction in bacterial counts (S. aureus Xen36; skin wounds, nisin concentration comparable to this study) [log] | frequency of spontaneous mutations conferring high levels of nisin tolerance (S. aureus) | zone of inhibition compared to wild-type strain Xen31 [1] | IC50 (cytotoxicity) [2] [µg/mL] | IC50 (midpoint cytotoxicity value) [3] [µg/mL] | negative effects on the mice (S. aureus Xen31) | sensitivity of isolate Mut2 ([1]; Mut2, 2 µl of 0.1 mg/ml MP1 spotted) | concentration above which growth is impaired [4]
1 | nisin A (ITSISLCTPGCKTGALMGCNMKTATCHCSIHVSK; also: lantibiotic (lanthionine rings, dehydro residues) not placed; UniProt P13068 24-57, looked up) [lantibiotic bacteriocin; commercial fermentate from Sigma-Aldrich (N5764; 2.5% wt/wt nisin)] | no negative effects on wound healing | 2 | 2 × 10^−7 | particularly reduced | 300 to 400 |  |  |  | 
2 | Lysostaphin: large (>10 kDa) heat-labile bacteriolysin from S. simulans |  |  |  |  |  | 16000 |  |  | 
3 | micrococcin P1 [MP1] |  |  |  | particularly reduced |  |  | no obvious negative effects on the mice | insensitive | above 0.03 mg/mL
